# Patent US7910621B2, “Small molecule antagonists of XIAP family proteins” (The Regents of the University of Michigan, priority 2004, dated 2011)
# Ends that are not written are not given here. Peptide text beside a SMILES is read from it. * marks the point of attachment. 6FAM = O=C1OC2(c3ccc(O)cc3Oc3cc(O)ccc32)c2cc(C(=O)*)ccc21; Cbz = O=C(OCc1ccccc1)*; CH2F = FC*
# How the values were obtained:
# [1] = target: T1, BIR3 domain (residues 241-356) of human XIAP (Homo sapiens, UniProt P98170); test: XIAP binding assay, FP-based (Smac-Flu tracer); conditions: Table 5
# T1 construct: the BIR3 domain (residues 241-356) of human XIAP fused to His-tag; His-tag
# Protocol: An established sensitive and quantitative in vitro fluorescence polarization-based (FP) binding assay for testing of the binding affinity of each new small molecule inhibitor of XIAP is used. […] The competing inhibitor is then added in microtiter wells. If the inhibitor does compete with Smac-Flu to bind to XIAP, it displaces the Smac-Flu peptide from the complex and cause a reduction in the polarization value. […] The change in the polarization value is used to determine the relative affinity of the inhibitor for XIAP. The XIAP used in this assay is the BIR3 domain (residues 241-356) of human XIAP fused to His-tag.
# The FP assays were performed as follows: each 96-well contains 50 nM Smac-Flu peptide, 985 nM XIAP protein and 5 ul tested compounds in a final volume of 20 ul. Tested compounds were serially diluted in triplicate in concentration from 0 to 100 uM. For each assay negative controls containing XIAP and Smac-Flu (equivalent to 0% inhibition) and positive controls containing only free Smac-Flu peptide (equivalent to 100% inhibition) were included on each assay plate. The polarization values were measured after 3 hour incubation when the binding reached equilibrium. IC50 values were determined from the plot using nonlinear least-squares analysis. Curve fitting was performed using […] PRISM software. The Kis of competing compounds were derived from the measured IC50 and the Kd of Smac-Flu in the competition assays, using the Cheng-Prusoff equation. The fluorescence intensity of each tested inhibitor is closely monitored to exclude any false positives. Furthermore, compounds with high fluorescence intensity are tested using the NMR methods described below.
# caspase-9 in PC-3 cells = test: Activation of caspase-9 assay, PC-3; format: cell-based, human; conditions: for blocking of active caspase-9 staining in Annexin V-FITC positive cells by pre-incubation: embelin-treated PC-3 cells pre-incubated with excessive inhibitor (20 μM LEHD-FMK, 5 min) before staining
# Protocol: FIGS. 7A and 7B show the activation of caspase-9 by embelin in PC-3 prostate cancer cells and its selectivity in normal prostate epithelial cells. 1×10^6 PC-3 or PrEC cells per well in 6-well culture plates were treated with embelin for 48 hours. […] The cells were collected and stained of active caspase-9 by CaspGLOW Red Active Caspase-9 Staining Kit, and analyzed by flow cytometry in PI channel.
# 1×10^6 PC-3 cells per well in 6-well culture plates, were treated with various concentrations of embelin, or the same amount of solvent DMSO as vehicle control, for up to 48 hr. […] The cells were collected for staining of active caspase-9 by CaspGLOW Red Active Caspase-9 Staining Kit (BioVision, Inc., Mountain View, Calif.) according to the manufacturer's instructions, with modification. Briefly, to each tube containing 1×10^6 treated or control cells in 0.3 ml complete culture medium was added 1 μl of Red-LEHD-FMK and incubated for 0.5 hr at 37° C. incubator with 5% CO2. For double staining with Annexin V-FITC, the cells were spun down and resuspended in 100 μl Binding Buffer containing 1× Annexin V-FITC from the Annexin-V-FLUOS Kit (Roche) and incubated at room temperature for 10 min. The cells were then washed two times with Wash Buffer from the Active Caspase-9 Staining Kit. The cells were resuspended in 0.3 ml Binding Buffer and analyzed by flow cytometry, using PI channel for active caspase-9 and FITC channel for apoptosis.
# The active caspase-9 and Annexin V double stained cells were also observed under Zeiss Laser Scanning Confocal Microscope LSM 510 Meta, using the fluorescent filter sets for rhodamine (Red) and FITC (green) channels. Early apoptotic cells show green fluorescence on the cell membrane while caspase-9 positive cells show bright red staining in the cytoplasm. Photos were taken at original magnification of 630×.
# [2] = target: XIAP BIR3 protein of human XIAP (residues 241-356) (Homo sapiens, UniProt P98170); test: biochemical
# [3] = target: T2, human XIAP BIR3 protein (residues 241-356) (Homo sapiens, UniProt P98170); test: FP direct binding of fluorescent labeled Smac peptides to XIAP BIR3 (Kd titration)
# T2 construct: The human XIAP BIR3 protein (residues 241-356) with a His tag; His tag
# Jurkat-Vec cells = test: Cell growth assay, Jurkat-Vec; format: cell-based; conditions: 2.5 μM, 72 hours
# Protocol: (§1) FIG. 9 presents inhibition of cell growth by embelin in Jurkat-Vec and Jurkat-XIAP cells. The cell growth results are expressed as the percent of control and calculated from the percent of absorbance of treated wells versus that of vehicle control.
# (§2) Human prostate cancer cell lines (PC-3, LNCap, CL-1, DU-145), and normal human fibroblast cell line WI-38 were obtained from the American Type Culture Collection (ATCC), were grown and maintained in Dulbecco's modified Eagle's medium (DMEM) containing 10% FBS (Invitrogen Corporation). Normal human prostate epithelial cells (PrEC) were obtained from Clonetics (Cambrex Inc., MD) and maintained in the special medium provided by the company. Jurkat T-cells stably transfected with either empty vector (Jurkat-Vec), or XIAP (Jurkat-XIAP) and were cultured in RPMI 1640 containing 10% fetal calf serum and 1 ug/ml puromycin. Cell cultures were maintained in a humidified incubator at 37° C. and 5% CO2.
# Cell growth was determined by the MTT-based assay using Cell Proliferation Reagent WST-1 (Roche) according to the manufacturer's instruction. […] Absorbance was measured with a plate reader at […] with correction at […]. The results are expressed as the percent of absorbance of treated wells versus that of vehicle control.
# Jurkat-XIAP cells = test: Cell growth assay, Jurkat-XIAP; format: cell-based
# Protocol: as §1, §2
# Cell growth was determined by the MTT-based assay using Cell Proliferation Reagent WST-1 (Roche) according to the manufacturer's instruction. The WST-1 assay is a colorimetric assay that measures the reduction of WST-1 by mitochondrial succinate dehydrogenase, which belongs to the respiratory chain of the mitochondria and is active only in viable cells. The WST-1 enters the cells and passes into the mitochondria, where it is reduced to a soluble, colored formazan product. The amount of formazan dye formed directly correlates to the number of metabolically active cells in the culture. Cells (5000 cells/well) were grown in medium with 10% FBS, and various concentrations of drugs were added to the cells in triplicate. […] Absorbance was measured with a plate reader at […] with correction at […]. The results are expressed as the percent of absorbance of treated wells versus that of vehicle control.
# T1 sequence (P98170 241-356): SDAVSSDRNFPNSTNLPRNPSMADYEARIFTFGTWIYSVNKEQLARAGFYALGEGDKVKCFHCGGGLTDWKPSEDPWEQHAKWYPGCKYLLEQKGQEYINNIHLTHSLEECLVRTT
# T2 sequence (P98170 241-356): as above
# XIAP BIR3 protein of human XIAP (residues 241-356), sequence (P98170 241-356): as above
IC50 [1],Molecule,further results
1.62 ± 0.28 µM,Cc1ccc(NC(=O)c2cccc(CCC3=C(O)C(=O)C=C(O)C3=O)c2)cc1 [CJ-305],–
–,"Cbz-Val-Ala-Asp-CH2F [ZVAD peptide, reference compound]","blocking of Annexin V-FITC and active caspase-9 double staining (caspase-9 in PC-3 cells; PC-3 cells, 40 μM embelin, 48 hrs): blocked; inhibition of embelin-induced activation of caspase-9 (caspase-9 in PC-3 cells; pan-caspase inhibitor added 5 min before embelin): effectively inhibited"
–,ZDEVD-FMK [reference compound],blocking of active caspase-9 staining in Annexin V-FITC positive cells by pre-incubation (caspase-9 in PC-3 cells): did not
14.3 ± 2.41 µM,O=C1C(O)=C(CCc2cccc(CCc3ccccc3)c2)C(=O)C(O)=C1CCc1ccccc1 [EW-6],–
9.18 ± 1.9 µM,O=C1C=C(O)C(=O)C(CCc2cccc(CCc3cccc(Cl)c3)c2)=C1O [EW-7],–
3.76 ± 0.25 µM,CC(C)c1ccc(CCc2cccc(CCC3=C(O)C(=O)C=C(O)C3=O)c2)cc1 [CJ-294],–
11.6 ± 0.96 µM,Cc1ccccc1NC(=O)c1cccc(CCC2=C(O)C(=O)C=C(O)C2=O)c1 [CJ-323],–
–,LEHD-FMK [reference compound],blocking of active caspase-9 staining in Annexin V-FITC positive cells by pre-incubation (caspase-9 in PC-3 cells): blocked
475 ± 122 µM,CCC1=C(O)C(=O)C=C(O)C1=O [EW-9],–
–,ARPFAQK [SM7],IC50 [2]: 0.57 ± 0.11 µM
89.1 ± 11.3 µM,O=C1C=C(O)C(=O)C(CCc2ccccc2)=C1O [CJ-331],–
27.6 ± 2.76 µM,CCCCc1cccc(CCC2=C(O)C(=O)C=C(O)C2=O)c1 [EW-4],–
5.27 ± 1.43 µM,Cc1ccc(CNC(=O)c2cccc(CCC3=C(O)C(=O)C=C(O)C3=O)c2)cc1 [CJ-315],–
4.89 ± 0.75 µM,Cc1cccc(NC(=O)c2cccc(CCC3=C(O)C(=O)C=C(O)C3=O)c2)c1 [CJ-322],–
2.14 ± 0.73 µM,Cc1ccc(CCc2cccc(CCC3=C(O)C(=O)C=C(O)C3=O)c2)cc1 [CJ-274],–
353 ± 79.4 µM,O=C1C=C(O)C(=O)C(CCCCc2ccccc2)=C1 [EW-3],–
8.05 ± 1.48 µM,O=C1C=C(O)C(=O)C(CCc2cccc(CCc3ccc(Cl)cc3)c2)=C1O [EW-8],–
3.42 ± 0.31 µM,CC(C)c1ccc(CCc2cccc(CCC3=C(O)C(=O)C=C(O)C3=O)c2)cc1 [CJ-301],–
61.4 ± 9.29 µM,CC(C)CCCCCC1=CC(=O)C=C(O)C1=O [EW-2],–
12.3 ± 1.09 µM,O=C1C=C(O)C(=O)C(CCc2cccc(C(=O)Nc3ccc(Cl)c(Cl)c3)c2)=C1O [CJ-327],–
–,"C[C@H](N)C(=O)N[C@@H](CCCNC(=N)N)C(=O)N1CCC[C@H]1C(=O)N[C@@H](Cc1ccccc1)C(=O)N[C@@H](C)C(=O)N[C@@H](CCC(N)=O)C(=O)N[C@@H](CCCCNC(=O)c1ccc2c(c1)C1(OC2=O)c2ccc(O)cc2Oc2cc(O)ccc21)C(=O)O [SM7F, ARPFAQK-FAM] (H-ARPFAQK(6FAM)-OH; N-terminus and C-terminus assumed)",binding affinity compared with S9F [3]: higher binding affinity than S9F; ratio of the Kd values between labeled SM7F and S9F [3]: 7.3 times
–,COc1cc([C@@H]2c3cc4c(cc3[C@@H](O[C@@H]3O[C@@H]5CO[C@@H](C)O[C@H]5[C@H](O)[C@H]3O)[C@H]3COC(=O)[C@H]23)OCO4)cc(OC)c1O [etoposide],"cells killed in cell growth assay (Jurkat-Vec cells): 94.3%±0.6%; cells killed in cell growth assay (Jurkat-XIAP cells; 2.5 μM, 72 hours): 59%±2%; cells killed in cell growth assay (Jurkat-XIAP cells; 10 μM): 85%±0.1%"
